In US20110160216A1, “Thymidylate Synthase Haplotype is Associated with Tumor Recurrence in Stage II and Stage III Colon Cancer Patients” (UNIVERSITY OF SOUTHEM CALIFORNIA, priority 2008, published 2011):
Marks after values point to notes of the source that are not given here.

System: locally advanced (Stage II/III) colon cancer
Assay: Retrospective study of time to tumor recurrence (TTR) after 5-FU-based adjuvant chemotherapy, by regimen and by TS/MTHFR genotype
Type: in vivo, human
Experimental: One hundred and ninety-seven (n=197) with locally advanced colon cancer who were treated with 5-FU-based adjuvant chemotherapy [bolus 5-FU: n=30, (15%); infusimal 5-FU: […], (85%)] either at the University of Southern California/Norris Comprehensive Cancer Center (USC/NCCC) or at the Los Angeles County/University of Southern California Medical Center (LAC/USCMC), between 1987 and 2007, were eligible for the present study. This study was conducted at the USC/NCCC and approved by the Institutional Review Board of the University of Southern California for Medical Sciences. Patient data were collected retrospectively through chart review. Informed consent was signed by all patients involved in the study.
Whole blood was collected and genomic DNA was extracted using the QIAamp kit (Qiagen, CA, USA). Samples were tested using polymerase chain reaction restriction fragment length polymorphism (PCR-RFLP) technique. Briefly, forward and reverse primers were used for PCR amplification (see Table 7), PCR products were digested by restriction enzymes (New England Biolab, Massachusetts, USA) and alleles were separated using a 4% NuSieve ethidium bromide stained agarose gel. TS and MTHFR polymorphisms were tested by PCR, followed by allele-specific restriction enzyme digestion method, as previously described (Mandola, M. V. et al. (2003) Cancer Res 63:2898-904; Mandola, M. V. et al. (2004) Pharmacogenetics 14:319-27; Markan, S. et al. (2007) Mol Cell Biochem 302:125-31; Stern, L. L. et al. (2000) Cancer Epidemiol Biomarkers Prev 9:849-53).
The primary endpoint in this study was time to tumor recurrence (TTR) in Stage II/III colon cancer patients, which was defined as the time from the date of diagnosis of Stage II/III colon cancer to the date of first recurrence, […], or until last contact if the patient was free of any tumor recurrence at the time of last contact. If a patient had not recurred, then TTR was censored at the time of death or at the last follow-up. The associations of time to tumor recurrence with patient's clinico-pathologic characteristics (age, sex, race, Stage, tumor grade, T-stage, N-stage and type of adjuvant chemotherapy) were assessed using univariate survival analyses (log-rank test).
Polymorphisms of TS and MTHFR were coded as categorical variables according to their genotypes. The associations between TS and MTHFR polymorphisms and time to recurrence were examined using Kaplan-Meier curves and log-rank test. The distributions of polymorphisms across demographic characteristics were examined using Fisher's exact test. In the univariate survival analysis, the Pike estimate of relative risk (RR) and its associated 95% confidence interval (95% CI) was based on the log-rank test.

[1] = patients receiving 5-FU only, MTHFR A + 1298C A/A
[2] = patients receiving 5-FU only, MTHFR A + 1298C A/C
[3] = patients receiving 5-FU only, MTHFR A + 1298C C/C
[4] = patients receiving 5-FU only, MTHFR C + 677T C/C
[5] = patients receiving 5-FU only, MTHFR C + 677T C/T
[6] = patients receiving 5-FU only, MTHFR C + 677T T/T
[7] = patients receiving 5-FU only, TS-3′UTR +6b/−6bp
[8] = patients receiving 5-FU only, TS-3′UTR +6bp/+6bP
[9] = patients receiving 5-FU only, TS-3′UTR −6bp/−6bp
[10] = patients receiving 5-FU only, TS-5′UTR 2R/2R
[11] = patients receiving 5-FU only, TS-5′UTR 2R/3R
[12] = patients receiving 5-FU only, TS-5′UTR 3R/36
[13] = patients receiving 5-FU only, TS-5′UTR/GC 2R/2R
[14] = patients receiving 5-FU only, TS-5′UTR/GC 2R/3(G)
[15] = patients receiving 5-FU only, TS-5′UTR/GC 2R/3R(C)
[16] = patients receiving 5-FU only, TS-5′UTR/GC 3R(C)/3R(C)
[17] = patients receiving 5-FU only, TS-5′UTR/GC 3R(G)/3R(C)
[18] = patients receiving 5-FU only, TS-5′UTR/GC 3R(G)/3R(G)

## O=c1[nH]cc(F)c(=O)[nH]1 [5-FU, 5-Fluorouracil]
All patients grouped by adjuvant therapy
  Median time to recurrence (TTR) years (95% CI): 6.6 years
All patients grouped by adjuvant therapy, Greenwood SE
  Probablility ± SE of 3-year recurrence: 0.35 ± 0.04
[1]
  Median time to recurrence (TTR) years (95% CI): > 16.8^b years
  Probability ± SE of 3-year recurrence: 0.31 ± 0.06
[2]
  Median time to recurrence (TTR) years (95% CI): 5.9 years
  Probability ± SE of 3-year recurrence: 0.35 ± 0.08
Patients receiving 5-FU only, MTHFR A + 1298C A/C vs A/A (Reference)
  Relative risk: 1.33
[3]
  Median time to recurrence (TTR) years (95% CI): 6.6 years
  Probability ± SE of 3-year recurrence: 0.40 ± 0.22
Patients receiving 5-FU only, MTHFR A + 1298C C/C vs A/A (Reference)
  Relative risk: 1.50
[4]
  Median time to recurrence (TTR) years (95% CI): 6.6 years
  Probability ± SE of 3-year recurrence: 0.26 ± 0.07
[5]
  Median time to recurrence (TTR) years (95% CI): 5.4 years
  Probability ± SE of 3-year recurrence: 0.41 ± 0.07
Patients receiving 5-FU only, MTHFR C + 677T C/T vs C/C (Reference)
  Relative risk: 1.30
[6]
  Median time to recurrence (TTR) years (95% CI): > 7.4^b years
  Probability ± SE of 3-year recurrence: 0.21 ± 0.09
Patients receiving 5-FU only, MTHFR C + 677T T/T vs C/C (Reference)
  Relative risk: 0.55
[7]
  Median time to recurrence (TTR) years (95% CI): 5.7 years
  Probability ± SE of 3-year recurrence: 0.34 ± 0.07
Patients receiving 5-FU only, TS-3′UTR +6b/−6bp vs +6bp/+6bP (Reference)
  Relative risk: 1.33
[8]
  Median time to recurrence (TTR) years (95% CI): > 16.8^b years
  Probability ± SE of 3-year recurrence: 0.28 ± 0.06
[9]
  Median time to recurrence (TTR) years (95% CI): > 7.7^b years
  Probability ± SE of 3-year recurrence: 0.43 ± 0.12
Patients receiving 5-FU only, TS-3′UTR −6bp/−6bp vs +6bp/+6bP (Reference)
  Relative risk: 1.36
[10]
  Median time to recurrence (TTR) years (95% CI): > 16.8^b years
  Probability ± SE of 3-year recurrence: 0.20 ± 0.08
[11]
  Median time to recurrence (TTR) years (95% CI): 4.8 years
  Probability ± SE of 3-year recurrence: 0.42 ± 0.07
Patients receiving 5-FU only, TS-5′UTR 2R/3R vs 2R/2R (Reference)
  Relative risk: 1.94
[12]
  Median time to recurrence (TTR) years (95% CI): 6.6 years
  Probability ± SE of 3-year recurrence: 0.29 ± 0.08
Patients receiving 5-FU only, TS-5′UTR 3R/36 vs 2R/2R (Reference)
  Relative risk: 1.43
[13]
  Median time to recurrence (TTR) years (95% CI): > 16.8^b years
  Probability ± SE of 3-year recurrence: 0.20 ± 0.08
[14]
  Median time to recurrence (TTR) years (95% CI): 4.8 years
  Probability ± SE of 3-year recurrence: 0.44 ± 0.10
Patients receiving 5-FU only, TS-5′UTR/GC 2R/3(G) vs 2R/2R (Reference)
  Relative risk: 1.81
[15]
  Median time to recurrence (TTR) years (95% CI): 5.9 years
  Probability ± SE of 3-year recurrence: 0.38 ± 0.10
Patients receiving 5-FU only, TS-5′UTR/GC 2R/3R(C) vs 2R/2R (Reference)
  Relative risk: 1.79
[16]
  Median time to recurrence (TTR) years (95% CI): > 13.3^b years
  Probability ± SE of 3-year recurrence: 0.17 ± 0.11
Patients receiving 5-FU only, TS-5′UTR/GC 3R(C)/3R(C) vs 2R/2R (Reference)
  Relative risk: 0.46
[17]
  Median time to recurrence (TTR) years (95% CI): 5.7 years
  Probability ± SE of 3-year recurrence: 0.24 ± 0.12
Patients receiving 5-FU only, TS-5′UTR/GC 3R(G)/3R(C) vs 2R/2R (Reference)
  Relative risk: 1.44
[18]
  Median time to recurrence (TTR) years (95% CI): 1.4 years
  Probability ± SE of 3-year recurrence: 0.61 ± 0.17
Patients receiving 5-FU only, TS-5′UTR/GC 3R(G)/3R(G) vs 2R/2R (Reference)
  Relative risk: 4.74
